According to US5756505A, “N-acylpiperazine derivative, antibacterial drug and anti-ulcer drug” (Shiseido Co., Ltd., priority 1995, dated 1998):

What was measured:
acid secretion = test: VOL, TAO: Acid Secretion Inhibition Test In Vivo; set-up: species or system rat (male Crj:Donryu); conditions: rat; for TAO: total acid output inhibitory rate / VOL: gastric juice volume inhibitory rate: 100 mg/kg oral, histamine-stimulated, pylorus ligated; for gastric acid secretion inhibition effect (in words): in vivo
Description: VOL, TAO: Acid Secretion Inhibition Test In Vivo
Inhibitory effect on acid secretion in vivo is confirmed.
Male Crj:Donryu rats (7-week-old) were fasted overnight but allowed free access to water. In each group, 8 to 10 of these rats were used under urethane anesthesia (1.25 g/kg). The sample compound dissolved or suspended in an aqueous solution of 0.5% sodium carboxymethylcellulose or 0.05% Tween 80 was orally administered (100 mg/10 ml/kg). 30 minutes later, the abdomen of each was incised and the pylorus was ligated. 30 minutes after the ligation, 30 mg/kg of histamine dissolved in physiological saline were subcutaneously administered and, 3 hours thereafter, the rat was sacrificed with carbon dioxide. Immediately thereafter, each stomach was removed and the gastric contents were collected and each volume was determined. The total acid output was determined by titration of the gastric juice with 0.1N NaOH.
With respect to the gastric juice volume (VOL) and the total acid output (TAO), the effects obtained when 100 mg/kg of the sample compound had been administered were expressed as their respective inhibitory rates (%) as follows:
each inhibitory rate (%)=[1-(value in sample group/value in control group)]×100

[1] = tested on: gastric corpus mucosa cells; test: MTT: Cell Damaging and Protecting Effect Test; type: cell-based, rabbit (male Japanese White); conditions: final concentration 10^-4 M, 4 hours; smaller value is better; 100 µM
[2] = Tests for Safety (PD, AT, MTT), overall statement
Description: Based on the foregoing effect tests and safety tests, the anti-ulcer effect, antibacterial activity against HP, and safety of the example compounds of the present invention were studied.

mice = test: AT: Single Dose Toxicity Pretest; type: in vivo, mouse (male Slc:ICR)
Description: AT: Single Dose Toxicity Pretest
Male Slc:ICR mice (5-week-old) were used. Each group has 3 to 5 mice and each mouse was fasted, but allowed free access to water, for 4 to 5 hours from 9 a.m. in the test day. Then, 2,000 mg/10 ml/kg of the sample compound dissolved or suspended in an aqueous solution of 0.5% sodium carboxymethylcellulose were orally administered thereto. To a control, only the vehicle was administered. […] The body weight was measured before and after the fasting as well as at the same time everyday. The dead animals were immediately subjected to autopsy and their organs were observed macroscopically. Also, the living animals were sacrificed with ether or carbon dioxide one week after the administration and then their organs were observed macroscopically.
The toxicity at the single dose of 2,000 mg/kg of the sample compound was expressed as being classified into 5 levels.
5: Mortality rate is 0%; no toxicity is found at all both in behavior and organs.
4: Mortality rate is 0%; while no toxicity is found in organs, slight toxicity is observed in behavior and body weight increase.
3: While there is a dead animal (though not all the animals are dead), no toxicity is found in organs.
2: Regardless of whether there is a dead animal or not, toxicity is found in organs.
1: All the animals are dead.

Structure (SMILES)	MTT: cell damaging rate [1]	TAO: total acid output inhibitory rate (acid secretion)	VOL: gastric juice volume inhibitory rate (acid secretion)	also measured
CC(C)Cc1cc(C(=O)N2CCN(CC(C)C)CC2)ccc1OCc1ccc([N+](=O)[O-])cc1.Cl [Example 13, 1-isobutyl-4-[3-isobutyl-4-(4-nitrobenzyloxy)benzoyl]piperazine hydrochloride]		18%	3%	
CC(C)Cc1cc(C(=O)N2CCN(CC(C)C)CC2)ccc1OCc1ccc(Cl)cc1 [Example 17, 1-[4-(4-chlorobenzyloxy)-3-isobutylbenzoyl]-4-isobutylpiperazine]				AT: toxicity at single dose, level (mice; mouse, in vivo): 2
CC(C)Cc1cc(C(=O)N2CCN(CC(C)C)CC2)ccc1OCc1ccc(F)c(F)c1 [Example 26, 1-[4-(3,4-difluorobenzyloxy)-3-isobutylbenzoyl]-4-isobutylpiperazine]	29%			
CC(C)Cc1cc(C(=O)N2CCN(CC(C)C)CC2)ccc1OCc1ccccc1F [Example 18, 1-[4-(2-fluorobenzyloxy)-3-isobutylbenzoyl]-4-isobutylpiperazine]	-33%			
CC(C)Cc1cc(CN2CCN(CC(C)C)CC2)ccc1OCc1ccc(F)cc1.Cl.Cl [Example 20, 1-[4-(4-fluorobenzyloxy)-3-isobutylbenzyl]-4-isobutylpiperazine dihydrochloride]		43%	12%	
CC(C)Cc1cc(C(=O)N2CCN(CC(C)C)CC2)ccc1OCc1ccccc1F.Cl [Example 19, 1-[4-(2-fluorobenzyloxy)-3-isobutylbenzoyl]-4-isobutylpiperazine hydrochloride]	-55%	42%	6%	
CC(C)Cc1cc(C(=O)N2CCN(CC(C)C)CC2)ccc1OCc1ccc(F)c(F)c1.Cl [Example 23, 1-[4-(3,4-difluorobenzyloxy)-3-isobutylbenzoyl]-4-isobutylpiperazine hydrochloride]		9%	-9%	
CC(C)Cc1cc(C(=O)N2CCN(CC(C)C)CC2)ccc1OCc1ccc(F)cc1F.Cl [Example 24, 1-[4-(2,4-difluorobenzyloxy)-3-isobutylbenzoyl]-4-isobutylpiperazine hydrochloride]	-126%	33%	7%	
CC(C)Cc1cc(C(=O)N2CCN(CC(C)C)CC2)ccc1OCc1ccc(F)cc1F [Example 27, 1-[4-(2,4-difluorobenzyloxy)-3-isobutylbenzoyl]-4-isobutylpiperazine]	-119%			
CC(C)Cc1cc(CC(=O)N2CCN(CC(C)C)CC2)ccc1OCc1ccccc1 [Example 15, 1-(4-benzyloxy-3-isobutylphenylacetyl)-4-isobutylpiperazine]				AT: toxicity at single dose, level (mice; mouse, 2,000 mg/kg oral, one week): 2
CC(C)Cc1cc(C(=O)N2CCN(CC(C)C)CC2)ccc1OCc1ccccc1 [Example 16, 1-(4-benzyloxy-3-isobutylbenzoyl)-4-isobutylpiperazine]				AT: toxicity at single dose, level (mice; mouse, in vivo): 2
CC(C)CN1CCN(C(=O)c2ccc(OCc3ccc(F)cc3)c([N+](=O)[O-])c2)CC1.Cl [Example 8, 1-[4-(4-fluorobenzyloxy)-3-nitrobenzoyl]-4-isobutylpiperazine hydrochloride]		16%	8%	

The next lines start with results.

MTT: cell damaging rate [1]	Structure (SMILES)	TAO: total acid output inhibitory rate (acid secretion)	VOL: gastric juice volume inhibitory rate (acid secretion)	also measured
-4%	CC(C)Cc1cc(C(=O)N2CCN(CC(C)C)CC2)ccc1OCc1ccc(F)cc1.Cl [Example 22, 1-[4-(4-fluorobenzyloxy)-3-isobutylbenzoyl]-4-isobutylpiperazine hydrochloride]	22%	10%	gastric acid secretion inhibition effect (in words) (acid secretion): improved; safety (in words) [2]: great improvement in safety
-84%	CC(C)CN1CCN(C(=O)c2ccc(OCc3ccc(F)cc3)cc2)CC1 [Example 5, 1-[4-(4-fluorobenzyloxy)benzoyl]-4-isobutylpiperazine]			
-65%	CC(C)Cc1cc(C(=O)N2CCN(CC(C)C)CC2)ccc1OCc1ccc(F)cc1 [Example 21, 1-[4-(4-fluorobenzyloxy)-3-isobutylbenzoyl]-4-isobutylpiperazine]	35%	9%	gastric acid secretion inhibition effect (in words) (acid secretion): improved; safety (in words) [2]: great improvement in safety
-6%	CC(C)CN1CCN(C(=O)c2ccc(OCc3ccc(F)cc3)cc2)CC1.Cl [Example 2, 1-[4-(4-fluorobenzyloxy)benzoyl]-4-isobutylpiperazine hydrochloride]			
-28%	CC(C)Cc1cc(C(=O)N2CCN(CC(C)C)CC2)ccc1OCc1ccc(F)cc1.O=C(O)C(=O)O [Example 25, 1-[4-(4-fluorobenzyloxy)-3-isobutylbenzoyl]-4-isobutylpiperazine oxalate]	47%	19%	
